Earlier results, collected in patent US10406232B2, “Oral delivery compositions for treating dermatitis disorders in mammals” (Vets Plus, Inc., priority 2015, dated 2019).

System: dendritic cells (DCs)
Conditions: through sequential p38 MAP kinase phosphorylation and caspase 3-activation

CC(C)[C@]12O[C@H]1[C@@H]1O[C@]13[C@]1(O[C@H]1C[C@H]1C4=C(CC[C@@]13C)C(=O)OC4)[C@@H]2O [triptolide]
concentration that induces apoptosis of DCs: ≥ 20 ng/mL
